Experimental data from patent US12590091B2, “1H-pyrrolo[3,2-C]pyridine and 1H-pyrrolo[2,3-C]pyridine derivatives as TLR9 inhibitors for the treatment of fibrosis” (BRISTOL-MYERS SQUIBB COMPANY, priority 2020, dated 2026).

Key:
human TLR8 = target: T1, human TLR8 (Homo sapiens, UniProt Q9NR97); assay: TLR8 inhibition reporter assay (HEK-Blue cells, SEAP reporter); type: cell-based; details: HEK-Blue cells overexpressing human TLR8, stimulated with R848 15.9 μM, 22 hour incubation
T1 construct: host or cells: HEK-Blue cells
T1 sequence (Q9NR97 27-1041): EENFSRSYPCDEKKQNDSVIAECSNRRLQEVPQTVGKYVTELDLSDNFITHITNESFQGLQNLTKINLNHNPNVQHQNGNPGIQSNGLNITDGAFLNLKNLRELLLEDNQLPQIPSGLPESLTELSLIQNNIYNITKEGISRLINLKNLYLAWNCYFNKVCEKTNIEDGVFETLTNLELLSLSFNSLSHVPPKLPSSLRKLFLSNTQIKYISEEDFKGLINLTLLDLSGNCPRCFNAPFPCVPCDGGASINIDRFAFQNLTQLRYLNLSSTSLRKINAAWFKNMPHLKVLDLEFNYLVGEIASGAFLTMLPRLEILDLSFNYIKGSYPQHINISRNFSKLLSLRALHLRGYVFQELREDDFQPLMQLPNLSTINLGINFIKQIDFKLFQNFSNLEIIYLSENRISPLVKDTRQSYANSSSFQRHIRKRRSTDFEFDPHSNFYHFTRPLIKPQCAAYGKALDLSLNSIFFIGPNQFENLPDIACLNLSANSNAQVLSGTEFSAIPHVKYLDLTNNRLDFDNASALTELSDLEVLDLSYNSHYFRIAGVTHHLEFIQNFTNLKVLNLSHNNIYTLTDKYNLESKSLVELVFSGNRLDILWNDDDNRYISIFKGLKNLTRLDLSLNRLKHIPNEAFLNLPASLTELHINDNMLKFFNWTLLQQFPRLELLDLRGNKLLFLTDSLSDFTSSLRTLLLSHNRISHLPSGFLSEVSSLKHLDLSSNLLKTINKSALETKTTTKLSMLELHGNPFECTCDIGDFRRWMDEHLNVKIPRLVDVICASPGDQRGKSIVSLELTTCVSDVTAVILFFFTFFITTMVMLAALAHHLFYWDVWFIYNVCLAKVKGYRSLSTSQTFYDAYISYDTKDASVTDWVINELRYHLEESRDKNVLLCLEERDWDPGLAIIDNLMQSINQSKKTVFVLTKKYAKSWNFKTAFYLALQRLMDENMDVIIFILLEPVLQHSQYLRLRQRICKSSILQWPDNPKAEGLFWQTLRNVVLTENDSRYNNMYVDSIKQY
In short: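 Compound treatment: 30 min, RT, 0.05 nM–50 μM final. Agonist: TLR7 gardiquimod 7.5 μM; TLR8 R848 15.9 μM; TLR9 ODN2006 5 nM. Incubation 22 h, 37 °C, 5% CO2. Readout SEAP, HEK-Blue Detection.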

human TLR9 = target: T2, human TLR9 (Homo sapiens, UniProt Q9NR96); assay: TLR9 inhibition reporter assay (HEK-Blue cells, SEAP reporter); type: cell-based; details: HEK-Blue cells overexpressing human TLR9, stimulated with ODN2006 5 nM, 22 hour incubation
T2 construct: host or cells: HEK-Blue cells
T2 sequence (Q9NR96 26-1032): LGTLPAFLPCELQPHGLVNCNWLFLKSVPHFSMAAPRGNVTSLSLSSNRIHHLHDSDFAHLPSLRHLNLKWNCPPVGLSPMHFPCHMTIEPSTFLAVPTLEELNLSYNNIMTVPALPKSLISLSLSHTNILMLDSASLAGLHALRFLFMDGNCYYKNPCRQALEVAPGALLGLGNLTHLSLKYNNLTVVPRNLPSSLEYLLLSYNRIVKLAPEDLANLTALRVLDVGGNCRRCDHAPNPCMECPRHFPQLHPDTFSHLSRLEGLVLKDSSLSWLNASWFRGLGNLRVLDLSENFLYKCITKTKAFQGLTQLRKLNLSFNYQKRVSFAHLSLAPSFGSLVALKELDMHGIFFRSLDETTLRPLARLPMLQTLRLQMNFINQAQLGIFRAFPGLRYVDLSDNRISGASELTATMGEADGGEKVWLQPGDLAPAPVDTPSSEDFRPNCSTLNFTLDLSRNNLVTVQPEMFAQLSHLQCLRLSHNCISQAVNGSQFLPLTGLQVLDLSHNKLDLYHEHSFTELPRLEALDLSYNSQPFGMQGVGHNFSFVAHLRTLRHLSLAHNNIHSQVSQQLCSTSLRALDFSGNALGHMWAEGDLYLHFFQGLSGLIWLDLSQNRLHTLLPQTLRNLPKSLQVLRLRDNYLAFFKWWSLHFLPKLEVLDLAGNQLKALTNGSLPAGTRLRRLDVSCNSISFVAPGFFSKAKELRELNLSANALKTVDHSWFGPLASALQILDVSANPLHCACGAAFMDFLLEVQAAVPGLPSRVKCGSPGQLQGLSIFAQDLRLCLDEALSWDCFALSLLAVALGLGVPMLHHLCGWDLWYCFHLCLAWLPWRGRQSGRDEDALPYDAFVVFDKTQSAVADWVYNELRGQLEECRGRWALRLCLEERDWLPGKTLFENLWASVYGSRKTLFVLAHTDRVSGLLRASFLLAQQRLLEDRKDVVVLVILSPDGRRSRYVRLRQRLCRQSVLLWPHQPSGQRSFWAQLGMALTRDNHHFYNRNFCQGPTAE
In short: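 Compound dose-response (0.05 nM–50 μM final) on agonist-stimulated human TLR9 HEK-Blue cells, 25,000/well, incubated 22 h at 37 °C, 5% CO2. Readout was secreted alkaline phosphatase under an IFN-β minimal promoter with NF-κB/AP-1 sites; inhibition expressed relative to DMSO and reference-inhibitor controls.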

SMILES | IC50 (human TLR8) | IC50 (human TLR9)
Cc1nc(-c2ccc(C3(O)CCN(C(C)C)CC3)cc2F)cc2c1cc(-c1ccc(S(C)(=O)=O)cc1)n2C [Example 109, 4-(4-(1,4-dimethyl-2-(4-(methylsulfonyl)phenyl)-1H-pyrrolo[3,2-c]pyridin-6-yl)-3-fluorophenyl)-1-isopropylpiperidin-4-ol] | 1100 nM | 188 nM
Cc1nc(-c2ccc(CN3CCN(CCC(C)(C)O)CC3)cc2)cc2c1cc(-c1ccc(S(C)(=O)=O)cc1)n2C1CC1 [Example 116, 4-[4-[[4-[1-cyclopropyl-4-methyl-2-(4-methylsulfonylphenyl)pyrrolo[3,2-c]pyridin-6-yl]phenyl]methyl]piperazin-1-yl]-2-methyl-butan-2-ol] | 19000 nM | 59 nM
CC(C)N1CCN(c2ccc(-c3cc4c(cc(-c5ccc(S(C)(=O)=O)cc5)n4C)c(C(C)(C)O)n3)cc2)CC1 [Example 118, 2-[6-[4-(4-isopropylpiperazin-1-yl)phenyl]-1-methyl-2-(4-methylsulfonylphenyl)pyrrolo[3,2-c]pyridin-4-yl]propan-2-ol] | 8100 nM | 57 nM
CC(C)(O)CN1C2CCC1CN(Cc1ccc(-c3cc4c(cn3)cc(-c3ccc(S(C)(=O)=O)cc3)n4C3CC3)cc1)C2 [Example 121, 1-[3-[[4-[1-cyclopropyl-2-(4-methylsulfonylphenyl)pyrrolo[3,2-c]pyridin-6-yl]phenyl]methyl]-3,8-diazabicyclo[3.2.1]octan-8-yl]-2-methyl-propan-2-ol] | > 50000 nM | 129 nM
Cc1nc(-c2ccc(CN3CCN(CC(C)(C)O)CC3)cc2)cc2c1cc(-c1ccc(S(C)(=O)=O)cc1)n2C(F)F [Example 124, 1-(4-(4-(1-(difluoromethyl)-4-methyl-2-(4-(methylsulfonyl)phenyl)-1H-pyrrolo[3,2-c]pyridin-6-yl)benzyl)piperazin-1-yl)-2-methylpropan-2-ol] | > 50000 nM | 451 nM
CC(C)N1CCN(Cc2ccc(-c3cc4c(cc(-c5ccc(S(C)(=O)=O)cc5)n4C)c(C(C)(C)O)n3)cc2)CC1 [Example 125, 2-(6-(4-((4-isopropylpiperazin-1-yl)methyl)phenyl)-1-methyl-2-(4-(methylsulfonyl)phenyl)-1H-pyrrolo[3,2-c]pyridin-4-yl)propan-2-ol] | 11300 nM | 133 nM
CC(C)(O)CN1CCN(Cc2ccc(-c3cc4c(cn3)cc(-c3ccc(S(C)(=O)=O)cc3)n4C3CC3)cc2)CC1 [Example 128, 1-(4-(4-(1-cyclopropyl-2-(4-(methylsulfonyl)phenyl)-1H-pyrrolo[3,2-c]pyridin-6-yl)benzyl)piperazin-1-yl)-2-methylpropan-2-ol] | 7900 nM | 115 nM
CC(C)(O)CN1CC2CCC(C1)N2Cc1ccc(-c2cc3c(cn2)cc(-c2ccc(S(C)(=O)=O)cc2)n3C2CC2)cc1 [Example 130, 1-(8-(4-(1-cyclopropyl-2-(4-(methylsulfonyl)phenyl)-1H-pyrrolo[3,2-c]pyridin-6-yl)benzyl)-3,8-diazabicyclo[3.2.1]octan-3-yl)-2-methylpropan-2-ol] | 6400 nM | 92 nM

Results, then the molecule that gave them:

IC50 (human TLR8) | IC50 (human TLR9) | SMILES
1500 nM | 204 nM | Cc1nc(-c2ccc(C3(O)CCN(C(C)(C)C)CC3)cc2F)cc2c1cc(-c1ccc(S(C)(=O)=O)cc1)n2C [Example 108, 1-(tert-butyl)-4-(4-(1,4-dimethyl-2-(4-(methylsulfonyl)phenyl)-1H-pyrrolo[3,2-c]pyridin-6-yl)-3-fluorophenyl)piperidin-4-ol]
> 50000 nM | 47 nM | Cc1nc(C2CCN(C3CC4CCC(C3)N4CC(C)C)CC2)cc2c1cc(-c1ccc(S(C)(=O)=O)cc1)n2C (stereo not shown) [Example 114, 6-(1-(8-isobutyl-8-azabicyclo[3.2.1]octan-3-yl)piperidin-4-yl)-1,4-dimethyl-2-(4-(methylsulfonyl)phenyl)-1H-pyrrolo[3,2-c]pyridine]
2100 nM | 615 nM | Cc1nc(-c2ccc(CN3CCN(CCC(C)(C)O)CC3)cc2)cc2c1c(F)c(-c1ccc(S(C)(=O)=O)cc1)n2C [Example 115, 4-(4-(4-(3-fluoro-1,4-dimethyl-2-(4-(methylsulfonyl)phenyl)-1H-pyrrolo[3,2-c]pyridin-6-yl)benzyl)piperazin-1-yl)-2-methylbutan-2-ol]
3700 nM | 103 nM | Cc1nc(-c2ccc(CN3CCN(CC(C)(C)O)CC3)cc2)cc2c1c(F)c(-c1ccc(S(C)(=O)=O)cc1)n2C [Example 122, 1-(4-(4-(3-fluoro-1,4-dimethyl-2-(4-(methylsulfonyl)phenyl)-1H-pyrrolo[3,2-c]pyridin-6-yl)benzyl)piperazin-1-yl)-2-methylpropan-2-ol]
17600 nM | 85 nM | Cc1nc(-c2ccc(CN3CCN(CC(C)(C)O)CC3)cc2)cc2c1cc(-c1ccc(S(C)(=O)=O)cc1)n2C1CC1 [Example 123, 1-(4-(4-(1-cyclopropyl-4-methyl-2-(4-(methylsulfonyl)phenyl)-1H-pyrrolo[3,2-c]pyridin-6-yl)benzyl)piperazin-1-yl)-2-methylpropan-2-ol]
5600 nM | 118 nM | CC(C)(O)CCN1CCN(Cc2ccc(-c3cc4c(cn3)cc(-c3ccc(S(C)(=O)=O)cc3)n4C3CC3)cc2)CC1 [Example 129, 4-(4-(4-(1-cyclopropyl-2-(4-(methylsulfonyl)phenyl)-1H-pyrrolo[3,2-c]pyridin-6-yl)benzyl)piperazin-1-yl)-2-methylbutan-2-ol]
